Test results reported in PubChem BioAssay AID330 (DTP/NCI, 2004).
“And” between values parts separate entries of the source, which are not always exact repeats. Identical values can stand only once. Inconclusive results and toxic doses are left out. How the source made its calls: active means survival T/C of 150% or more; inactive means T/C below 125% in these data.

Test system: P388 leukemia ip, CD2F1 mice, survival T/C
Test: NCI In Vivo Anticancer Drug Screen. Data for tumor model P388 Leukemia (intraperitoneal) in CD2F1 (CDF1) mice
Details: endpoint: median survival time, higher = longer survival
In short: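 Mice carrying the transplanted tumor received test compound or vehicle. Survival was recorded in each group, and the value is the treated-group measurement divided by that of the vehicle-treated control group.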

[1] = dose: 50.0 mg/kg/injection, schedule: Q01DX005 (ip), vehicle: saline with Tween-80
[2] = dose: 100.0 mg/kg/injection, schedule: Q01DX005 (ip), vehicle: saline with Tween-80
[3] = dose: 60.0 mg/kg/injection, schedule: Q01DX005 (ip), vehicle: Klucel (hydroxypropylcellulose) (HPC)
[4] = dose: 120.0 mg/kg/injection, schedule: Q01DX005 (ip), vehicle: Klucel (hydroxypropylcellulose) (HPC)
[5] = dose: 240.0 mg/kg/injection, schedule: Q01DX005 (ip), vehicle: Klucel (hydroxypropylcellulose) (HPC)
[6] = dose: 12.5 mg/kg/injection, schedule: Q01DX009 (ip), vehicle: saline
[7] = dose: 25.0 mg/kg/injection, schedule: Q01DX009 (ip), vehicle: saline
[8] = dose: 50.0 mg/kg/injection, schedule: Q01DX009 (ip), vehicle: saline
[9] = dose: 100.0 mg/kg/injection, schedule: Q01DX009 (ip), vehicle: saline
[10] = dose: 50.0 mg/kg/injection, schedule: Q04DX003 (ip), vehicle: saline with Tween-80
[11] = dose: 60.0 mg/kg/injection, schedule: Q01DX005 (ip), vehicle: saline with Tween-80
[12] = dose: 200.0 mg/kg/injection, schedule: Q01DX005 (ip), vehicle: saline with Tween-80
[13] = dose: 50.0 mg/kg/injection, schedule: Q01DX009 (ip), vehicle: saline with Tween-80
[14] = dose: 120.0 mg/kg/injection, schedule: Q01DX005 (ip), vehicle: saline with Tween-80
[15] = dose: 240.0 mg/kg/injection, schedule: Q01DX005 (ip), vehicle: saline with Tween-80
[16] = dose: 100.0 mg/kg/injection, schedule: Q01DX009 (ip), vehicle: saline with Tween-80
[17] = dose: 200.0 mg/kg/injection, schedule: Q01DX009 (ip), vehicle: saline with Tween-80
[18] = dose: 50.0 mg/kg/injection, schedule: Q01DX005 (ip), vehicle: Klucel (hydroxypropylcellulose) (HPC)
[19] = dose: 100.0 mg/kg/injection, schedule: Q01DX005 (ip), vehicle: Klucel (hydroxypropylcellulose) (HPC)

Measured: T/C

N#C/C(=C1/OC(=N)C(c2c(Cl)cccc2Cl)C1=O)c1c(Cl)cccc1Cl (stereo not drawn)
inactive: [1] 100 % of control | [2] 101 % of control

O=C(CC(=NCCN=C(CC(=O)c1ccccc1)c1ccccc1)c1ccccc1)c1ccccc1.[Cu]
inactive: dose: 100.0 mg/kg/injection, schedule: Q04DX002 (ip), vehicle: saline with Tween-80 98 % of control | dose: 200.0 mg/kg/injection, schedule: Q04DX002 (ip), vehicle: saline with Tween-80 96 % of control | dose: 400.0 mg/kg/injection, schedule: Q04DX002 (ip), vehicle: saline with Tween-80 95 % of control

Nc1ccc(C2NC(=O)Cc3c2ccc2ccccc32)cc1 (stereo not drawn)
inactive: [3] 95 % of control | [4] 94 % of control | [5] 95 % of control

C[n+]1ccc(/C=C/c2ccccc2O)cc1
inactive: [6] 89 % of control | [7] 94 % of control | [8] 106 % of control | [9] 117 % of control

CCCCCCCCCCCCCCC1(O)OC(=O)C(C)=C1C (stereo not drawn)
inactive: dose: 12.5 mg/kg/injection, schedule: Q04DX003 (ip), vehicle: saline with Tween-80 106 % of control | dose: 25.0 mg/kg/injection, schedule: Q04DX003 (ip), vehicle: saline with Tween-80 103 % of control | [10] 106 % of control

NC1(C(=O)O)CCCC1.O.[Cl][Au]
inactive: [11] 110 % of control

N#Cc1ccc(NN=O)cc1
inactive: dose: 3.12 mg/kg/injection, schedule: Q01DX009 (ip), vehicle: water 100 % of control | dose: 6.25 mg/kg/injection, schedule: Q01DX009 (ip), vehicle: water 105 % of control | dose: 12.5 mg/kg/injection, schedule: Q01DX009 (ip), vehicle: water 105 % of control | dose: 25.0 mg/kg/injection, schedule: Q01DX009 (ip), vehicle: water 117 % of control | dose: 100.0 mg/kg/injection, schedule: Q01DX009 (ip), vehicle: water 117 % of control

COc1ccc2c(c1)CN(CCc1ccccc1)CO2
inactive: [1] 101 % of control | [2] 101 % of control | [12] 97 % of control

Cc1cc(O)c2c(c1O)C(=O)C13C(=C2O)C(=O)C2C(O)C1C1C(O)C3C(=O)C3=C(O)c4c(O)cc(C)c(O)c4C(=O)C321 (stereo not drawn)
inactive: dose: 0.75 mg/kg/injection, schedule: Q01DX005 (ip), vehicle: saline with Tween-80 100 % of control and 106 % of control | dose: 0.78 mg/kg/injection, schedule: Q01DX009 (ip), vehicle: saline with Tween-80 116 % of control | dose: 1.5 mg/kg/injection, schedule: Q01DX005 (ip), vehicle: saline with Tween-80 111 % of control and 115 % of control | dose: 3.0 mg/kg/injection, schedule: Q01DX005 (ip), vehicle: saline with Tween-80 115 % of control

CC(=O)N1C=CC(=Cc2ccccc2)C=C1
inactive: dose: 50.0 mg/kg/injection, schedule: Q01DX009 (ip), vehicle: Klucel (hydroxypropylcellulose) (HPC) 98 % of control | dose: 100.0 mg/kg/injection, schedule: Q01DX009 (ip), vehicle: Klucel (hydroxypropylcellulose) (HPC) 98 % of control | dose: 200.0 mg/kg/injection, schedule: Q01DX009 (ip), vehicle: Klucel (hydroxypropylcellulose) (HPC) 99 % of control

Nc1cccc2c1C(O)c1ccccc1-2 (stereo not drawn)
inactive: [1] 95 % of control | [2] 99 % of control | [12] 90 % of control

CN(C=O)CCN(C)C=O
inactive: dose: 100.0 mg/kg/injection, schedule: Q04DX002 (ip), vehicle: saline 96 % of control | dose: 200.0 mg/kg/injection, schedule: Q04DX002 (ip), vehicle: saline 99 % of control | dose: 400.0 mg/kg/injection, schedule: Q04DX002 (ip), vehicle: saline 104 % of control

CCCCCCCCCCCC[n+]1cc2ccccc2cc1C
inactive: dose: 6.25 mg/kg/injection, schedule: Q01DX005 (ip), vehicle: saline with Tween-80 115 % of control and 122 % of control

CCOC(O)C(F)(F)F (stereo not drawn)
inactive: [6] 105 % of control | [7] 105 % of control | [8] 100 % of control | dose: 100.0 mg/kg/injection, schedule: Q04DX003 (ip), vehicle: saline 100 % of control | dose: 200.0 mg/kg/injection, schedule: Q04DX003 (ip), vehicle: saline 109 % of control

CCCN(CCC)c1nc2ccc(NC(=O)OCC)cc2s1
inactive: [6] 95 % of control | [7] 100 % of control | [13] 101 % of control | [8] 100 % of control

c1ccc(C2Nc3ccccc3CO2)cc1 (stereo not drawn)
inactive: [3] 101 % of control | [4] 99 % of control | [5] 99 % of control

CS(=O)(=O)Cc1cc(-c2ccccc2)no1
inactive: [11] 100 % of control | [14] 99 % of control | [15] 100 % of control

Nc1nc2n(n1)C(=O)C(=O)N2
inactive: [10] 100 % of control | dose: 100.0 mg/kg/injection, schedule: Q04DX003 (ip), vehicle: saline with Tween-80 106 % of control | dose: 200.0 mg/kg/injection, schedule: Q04DX003 (ip), vehicle: saline with Tween-80 103 % of control | dose: 400.0 mg/kg/injection, schedule: Q04DX003 (ip), vehicle: saline with Tween-80 103 % of control

CC(C)c1c(CN(C)C(C)Cc2ccccc2)n(C)n(-c2ccccc2)c1=O (stereo not drawn)
inactive: [11] 108 % of control | [14] 105 % of control | [15] 98 % of control

Cc1ccc(O)c(C2CC(=O)NC(N)=N2)c1 (stereo not drawn)
inactive: [8] 110 % of control | [9] 101 % of control | dose: 200.0 mg/kg/injection, schedule: Q01DX009 (ip), vehicle: saline 104 % of control

CCn1cc(C(=O)O)c(=O)c2cc(Cl)c(-n3cccc3)cc21
inactive: [11] 95 % of control | [14] 99 % of control | [15] 94 % of control

CCCCOP(=O)(NNP(=O)(OCCCC)OCCCC)OCCCC
inactive: dose: 25.0 mg/kg/injection, schedule: Q01DX009 (ip), vehicle: saline with Tween-80 102 % of control | [13] 102 % of control | [16] 100 % of control | [17] 101 % of control

COC(=O)C(=C(C)C)S(=O)c1ccccc1 (stereo not drawn)
inactive: dose: 12.5 mg/kg/injection, schedule: Q01DX005 (ip), vehicle: saline 102 % of control | dose: 25.0 mg/kg/injection, schedule: Q01DX005 (ip), vehicle: saline 103 % of control | dose: 50.0 mg/kg/injection, schedule: Q01DX005 (ip), vehicle: saline 100 % of control and 104 % of control

C=C(C)c1cc(C(C)(C)C)cc(C(C)(C)O)c1S(C)(=O)=O
inactive: dose: 100.0 mg/kg/injection, schedule: Q04DX003 (ip), vehicle: Klucel (hydroxypropylcellulose) (HPC) 97 % of control | dose: 200.0 mg/kg/injection, schedule: Q04DX003 (ip), vehicle: Klucel (hydroxypropylcellulose) (HPC) 98 % of control | dose: 400.0 mg/kg/injection, schedule: Q04DX003 (ip), vehicle: Klucel (hydroxypropylcellulose) (HPC) 95 % of control

OC1COC(c2ccccc2)OC1C1OC(c2ccccc2)OC2COC(c3ccccc3)OC21 (stereo not drawn)
inactive: [13] 107 % of control | [16] 96 % of control | [17] 97 % of control

CN(CS(=O)(=O)c1ccccc1)CS(=O)(=O)c1ccccc1
inactive: [3] 110 % of control | [4] 105 % of control | [5] 108 % of control

c1ccc2c(c1)[nH]c1c2nc2ncccn21
inactive: [18] 106 % of control | [19] 106 % of control

C=Cn1cc[n+](CC(=O)OC2CCC3C4CCC5=CC(=O)CCC5(C)C4CCC23C)c1 (stereo not drawn)
inactive: dose: 3.75 mg/kg/injection, schedule: Q01DX005 (ip), vehicle: Klucel (hydroxypropylcellulose) (HPC) 97 % of control | dose: 7.5 mg/kg/injection, schedule: Q01DX005 (ip), vehicle: Klucel (hydroxypropylcellulose) (HPC) 96 % of control

Nc1ccc(-c2ccc3ccccc3n2)cc1
inactive: dose: 3.13 mg/kg/injection, schedule: Q01DX009 (ip), vehicle: Klucel (hydroxypropylcellulose) (HPC) 103 % of control | dose: 6.25 mg/kg/injection, schedule: Q01DX009 (ip), vehicle: Klucel (hydroxypropylcellulose) (HPC) 101 % of control | dose: 12.5 mg/kg/injection, schedule: Q01DX009 (ip), vehicle: Klucel (hydroxypropylcellulose) (HPC) 106 % of control | dose: 25.0 mg/kg/injection, schedule: Q01DX009 (ip), vehicle: Klucel (hydroxypropylcellulose) (HPC) 88 % of control

Cn1ccc2c3c(ccc21)C(N1CCOCC1)=CS(=O)(=O)O3
inactive: [18] 104 % of control | [19] 98 % of control | dose: 200.0 mg/kg/injection, schedule: Q01DX005 (ip), vehicle: Klucel (hydroxypropylcellulose) (HPC) 100 % of control
